According to patent US6828315B1, “1-Amino triazoloc4,3-a! quinazoline-5-ones and/or -5-thiones inhibiting phosphodiesterase IV” (Warner-Lambert LLC, priority 1999, dated 2004):

melting point [°C] | Compound
228 | O=c1nc2n(Cc3ccccc3Cl)nc(N3CCCCCC3)n2c2ccc(Cl)cc12 [Compound 113, 1-(azepan-1-yl)-7-chloro-3-(2-chlorobenzyl)-3H-[1,2,4]triazolo[4,3-a]quinazolin-5-one]
166 | O=c1nc2n(Cc3cccc(Cl)c3)nc(N3CCCCCC3)n2c2ccc(Cl)cc12 [Compound 114, 1-(azepan-1-yl)-7-chloro-3-(3-chlorobenzyl)-3H-[1,2,4]triazolo[4,3-a]quinazolin-5one]
245 | O=c1nc2n(Cc3ccc(Cl)cc3)nc(N3CCCCCC3)n2c2ccc(Cl)cc12 [Compound 115, 1-(azepan-1-yl)-7-chloro-3-(4-chlorobenzyl)-3H-[1,2,4]triazolo[4,3-a]quinazolin-5-one]
244 | O=c1nc2n(Cc3ccc(Br)cc3)nc(N3CCCCCC3)n2c2ccc(Cl)cc12 [Compound 116, 1-(azepan-1-yl)-7-chloro-3-(4-bromobenzyl)-3H-[1,2,4]triazolo(4,3-a]quinazolin-5-one]
224 | O=c1nc2n(Cc3ccc(F)cc3)nc(N3CCCCCC3)n2c2ccc(Cl)cc12 [Compound 117, 1-(azepan-1-yl)-7-chloro-3-(4-fluorobenzyl)-3H-[1,2,4)triazolo[4,3-a]quinazolin-5-one]
232 | O=c1nc2n(Cc3ccc(C(F)(F)F)cc3)nc(N3CCCCCC3)n2c2ccc(Cl)cc12 [Compound 118, 1-(azepan-1-yl)-7-chloro-3-(4-(trifluoromethyl)benzyl)-3H-[1,2,4]triazolo[4,3-a]quinazolin-5-one]
> 260 | N#Cc1ccc(Cn2nc(N3CCCCCC3)n3c4ccc(Cl)cc4c(=O)nc23)cc1 [Compound 119, 1-(azepan-1-yl)-7-chloro-3-(4-cyanobenzyl)-3H-[1,2,4]triazolo[4,3-a]quinazolin-5-one]
184 | COc1ccccc1Cn1nc(N2CCCCCC2)n2c3ccc(Cl)cc3c(=O)nc12 [Compound 120, 1-(azepan-1-yl)-7-chloro-3-(2-methoxybenzyl)-3H-[1,2,4]triazolo[4,3-a]quinazolin-5-one]
163 | COc1cccc(Cn2nc(N3CCCCCC3)n3c4ccc(Cl)cc4c(=O)nc23)c1 [Compound 121, 1-(azepan-1-yl)-7-chloro-3-(3-methoxybenzyl)-3H-[1,2,4]triazolo[4,3-a]quinazolin-5-one]
164 to 165 | COc1ccc(Cn2nc(N3CCCCCC3)n3c4ccc(Cl)cc4c(=O)nc23)cc1 [Compound 122, 1-(azepan-1-yl)-7-chloro-3-(4-methoxybenzyl)-3H-[1,2,4]triazolo[4,3-a]quinazolin-5-one]
212 | O=c1nc2n(Cc3ccc(Cl)c(Cl)c3)nc(N3CCCCCC3)n2c2ccc(Cl)cc12 [Compound 123, 1-(azepan-1-yl)-7-chloro-3-(3,4-dichlorobenzyl)-3H-[1,2,4]triazolo[4,3-a]quinazolin-5-one]
153 | COc1ccc(Cn2nc(N3CCCCCC3)n3c4ccc(Cl)cc4c(=O)nc23)cc1OC [Compound 124, 1-(azepan-1-yl)-7-chloro-3-(3,4-dimethoxybenzyl)-3H-[1,2,4]triazolo[4,3-a]quinazolin-5-one]
153 | O=c1nc2n(Cc3ccccn3)nc(N3CCCCCC3)n2c2ccc(Cl)cc12 [Compound 125, 1-(azepan-1-yl)-7-chloro-3-(2-pyridylmethyl)-3H-[1,2,4]triazolo[4,3-a]quinazolin-5-one]
184 | O=c1nc2n(Cc3cccnc3)nc(N3CCCCCC3)n2c2ccc(Cl)cc12 [Compound 126, 1-(azepan-1-yl)-7-chloro-3-(3-pyridylmethyl)-3H-[1,2,4]triazolo[4,3-a]quinazolin-5-one]
196 | COc1ccc(CCn2nc(N3CCCCCC3)n3c4ccc(Cl)cc4c(=O)nc23)cc1 [Compound 128, 1-(azepan-1-yl)-7-chloro-3-[2-(4-methoxyphenyl)ethyl)-3H-[1,2,4]triazolo[4,3-a]quinazolin-5-one]
130 | O=c1nc2n(CCCc3ccccc3)nc(N3CCCCCC3)n2c2ccc(Cl)cc12 [Compound 129, 1-(azepan-1-yl)-7-chloro-3-(3-phenylpropyl)-3H-[1,2,4]triazolo[4,3-a]quinazolin-5-one]
230 to 232 | O=C(Cn1nc(N2CCCCCC2)n2c3ccc(Cl)cc3c(=O)nc12)c1ccccc1 [Compound 130, 1-Azepan-1-yl-7-chloro-3-(2-oxo-2-phenyl-ethyl)3H-[1,2,4]triazolo[4,3-a]quinazolin-5-one]
238 | COc1ccc(C(=O)Cn2nc(N3CCCCCC3)n3c4ccc(Cl)cc4c(=O)nc23)cc1 [Compound 131, 1-(azepan-1-yl)-7-chloro-3-(2-(4-methoxyphenyl)-2-oxoethyl]-3H-[1,2,4]triazolo[4,3-a]quinazolin-5-one]
238 | O=C(Cn1nc(N2CCCCCC2)n2c3ccc(Cl)cc3c(=O)nc12)c1ccc(Cl)cc1 [Compound 132, 1-(azepan-1-yl)-7-chloro-3-[2-(4-chlorophenyl)-2-oxoethyl)-3H-[1,2,4]triazolo[4,3-a]quinazolin-5-one]

melting point [°C] | Compound
136 | COC(=O)c1cc(C(=O)Cn2nc(N3CCCCCC3)n3c4ccc(Cl)cc4c(=O)nc23)ccc1OC [Compound 133, 5-[(1-(azepan-1-yl)-7-chloro-5-oxo-5H-[1,2,4]triazolo[4,3-a]-quinazolin-3-yl)acetyl]-2-methoxybenzoic acid methyl ester]
247 | O=c1nc2n(Cc3ccc(Cl)cc3)nc(N3CCCCCC3)n2c2ccc(Br)cc12 [Compound 134, 1-(azepan-1-yl)-7-bromo-3-(4-chlorobenzyl)-3H-[1,2,4]triazolo[4,3-a]quinazolin-5-one]
216 | O=c1nc2n(Cc3ccc(F)cc3)nc(N3CCCCCC3)n2c2ccc(Br)cc12 [Compound 135, 1-(azepan-1-yl)-7-bromo-3-(4-fluorobenzyl)-3H-[1,2,4]triazolo[4,3-a]quinazolin-5-one]
293 | N#Cc1ccc(Cn2nc(N3CCCCCC3)n3c4ccc(Br)cc4c(=O)nc23)cc1 [Compound 136, 4(1-(azepan-1-yl)-7-bromo-5-oxo-5H-[1,2,4]triazolo[4,3-a]-quinazolin-3-ylmethyl)-benzonitrile]
174 | COc1ccc(Cn2nc(N3CCCCCC3)n3c4ccc(Br)cc4c(=O)nc23)cc1OC [Compound 137, 1-(azepan-1-yl)-7-bromo-3-(3,4dimethoxybenzyl)-3H-[1,2,4]triazolo[4,3-a]quinazolin-5-one]
269 | O=C(O)Cc1ccc(Cn2nc(N3CCCCCC3)n3c4ccc(Br)cc4c(=O)nc23)cc1 [Compound 138, [4-(7-Bromo-5-oxo-1-perhydro-azepin-1-yl-5H-[1,2,4]triazolo[4,3-a]quinazolin-3-ylmethyl)-phenyl]-acetic acid]
192 | O=c1nc2n(Cc3cccnc3)nc(N3CCCCCC3)n2c2ccc(Br)cc12 [Compound 139, 1-(azepan-1-yl)-7-bromo-3-(pyridin-3-ylmethyl)-3H-[1,2,4]triazolo[4,3-a]quinazolin-5-one]
198 | O=c1nc2n(C/C=C/c3ccccc3)nc(N3CCCCCC3)n2c2ccc(Br)cc12 [Compound 140, 1-Azepan-1-yl-7-bromo-3-((E)-3-phenyl-allyl)-3H-[1,2,4]triazolo(4,3-a]quinazolin-5-one]
187 | O=c1nc2n(C/C=C/c3ccccc3)nc(N3CCCCC3)n2c2ccc(Br)cc12 [Compound 141, 7-Bromo-3-((E)-3-phenyl-allyl)-1-piperidin-1-yl-3H-[1,2,4]triazolo[4,3-a]quinazolin-5one]
233 | O=c1nc2n(Cc3ccc(F)cc3)nc(N3CCCC3)n2c2ccc(Br)cc12 [Compound 143, 7-bromo-3-(4-fluorobenzyl)-1-(pyrrolidin-1-yl)-3H-[1,2,4]triazolo[4,3-a]quinazolin-5-one]
222 | N#Cc1ccc(Cn2nc(N3CCCC3)n3c4ccc(Br)cc4c(=O)nc23)cc1 [Compound 144, 4-(7-bromo-5-oxo-1-(pyrrolidin-1-yl)-5H-[1,2,4]triazolo[4,3-a]-quinazolin-3-ylmethyl)-benzonitrile]
193 | COC(=O)c1ccc(Cn2nc(N3CCCC3)n3c4ccc(Br)cc4c(=O)nc23)cc1 [Compound 145, 4-(7-bromo-5-oxo-1-(pyrrolidin-1-yl)-5H-[1,2,4]triazolo[4,3-a]-quinazolin-3-ylmethyl)benzoic acid methyl ester]
164 | COc1ccc(Cn2nc(N3CCCC3)n3c4ccc(Br)cc4c(=O)nc23)cc1 [Compound 146, 7-Bromo-3-(4-methoxy-benzyl)-1-pyrrolidin-1-yl-3H-[1,2,4]triazolo[4,3-a]quinazolin-5-one]
199 | CC(=O)Oc1ccc(Cn2nc(N3CCCC3)n3c4ccc(Br)cc4c(=O)nc23)cc1 [Compound 147, Acetic acid 4-(7-bromo-5-oxo-1-pyrrolidin-1-yl-5H-[1,2,4]triazolo[4,3-a]quinazolin-3-ylmethyl)phenyl ester]
283 | CN(C)c1nn(Cc2ccc(O)cc2)c2nc(=O)c3cc(Br)ccc3n12 [Compound 148, 7-Bromo-1-dimethylamino-3-(4-hydroxy-benzyl)-3H-[1,2,4)triazolo[4,3-a]quinazolin-5-one]
168 | COc1cc(Cn2nc(N3CCCC3)n3c4ccc(Br)cc4c(=O)nc23)cc(OC)c1 [Compound 150, 7-bromo-3-(3,5-dimethoxy-benzyl)-1-(pyrrolidin-1-yl)-3H-[1,2,4]triazolo-[4,3-a]quinazolin-5-one]
199 to 201 | COc1cc(Cn2nc(N3CCCC3)n3c4ccc(Br)cc4c(=O)nc23)cc(OC)c1OC [Compound 151, 7-bromo-1-(pyrrolidin-1-yl)-3-(3,4,5-trimethoxybenzyl)-3H-[1,2,4]triazolo[4,3-a]quinazolin-5-one]
130 | CCCCn1nc(N2CCCC2)n2c3ccc(Br)cc3c(=O)nc12 [Compound 153, 7-bromo-3-(n-butyl)-1-(pyrrolidin-1-yl)-3H-[1,2,4]triazolo[4,3-a]-quinazolin-5-one]
